Assay results reported in ChEMBL document CHEMBL3046265, “Synthesis, evaluation of antimicrobial activity, and molecular modeling of novel 2-((4-(2H-benzo[d] [1,2,3] triazol-2-yl)piperidin-1-yl)methyl)-5-substituted phenyl-1,3,4-oxadiazoles” (2013).
Active and inactive are the calls of the source. No cut-off for these calls is given here.

Legend:
Assay type in all cases: functional
Colletotrichum falcatum [1] = assay: Antifungal activity against Glomerella tucumanensis at 1200 ug/ml after 48 hr; settings: read-out: IZ
Klebsiella pneumoniae [2] = assay: Antibacterial activity against Klebsiella pneumoniae at 900 ug/ml after overnight incubation; settings: read-out: IZ
Bacillus subtilis [3] = assay: Antibacterial activity against Bacillus subtilis at 900 ug/ml after overnight incubation; settings: read-out: IZ
Fusarium oxysporum [4] = assay: Antifungal activity against Fusarium oxysporum at 600 ug/ml after 48 hr; settings: read-out: IZ
Staphylococcus aureus [5] = assay: Antibacterial activity against Staphylococcus aureus at 900 ug/ml after overnight incubation
Fusarium oxysporum [6] = assay: Antifungal activity against Fusarium oxysporum at 1200 ug/ml after 48 hr; settings: read-out: IZ
Colletotrichum falcatum [7] = assay: Antifungal activity against Glomerella tucumanensis at 300 ug/ml after 48 hr; settings: read-out: IZ
Klebsiella aerogenes [8] = assay: Antibacterial activity against Enterobacter aerogenes at 600 ug/ml after overnight incubation; settings: read-out: IZ
Exserohilum rostratum [9] = assay: Antifungal activity against Setosphaeria rostrata at 900 ug/ml after 48 hr; settings: read-out: IZ
Klebsiella aerogenes [10] = assay: Antibacterial activity against Enterobacter aerogenes at 900 ug/ml after overnight incubation; settings: read-out: IZ
Colletotrichum falcatum [11] = assay: Antifungal activity against Glomerella tucumanensis at 600 ug/ml after 48 hr; settings: read-out: IZ
Enterococcus faecalis [12] = assay: Antibacterial activity against Enterococcus faecalis at 900 ug/ml after overnight incubation; settings: read-out: IZ
Streptococcus pyogenes [13] = assay: Antibacterial activity against Streptococcus pyogenes at 900 ug/ml after overnight incubation; settings: read-out: IZ
Candida albicans [14] = assay: Antifungal activity against Candida albicans at 1200 ug/ml after 48 hr; settings: read-out: IZ
Exserohilum rostratum [15] = assay: Antifungal activity against Setosphaeria rostrata at 1200 ug/ml after 48 hr; settings: read-out: IZ
Bacillus pumilus [16] = assay: Antibacterial activity against Bacillus pumilus at 900 ug/ml after overnight incubation; settings: read-out: IZ
Candida albicans [17] = assay: Antifungal activity against Candida albicans at 300 ug/ml after 48 hr; settings: read-out: IZ
Bacillus subtilis [18] = assay: Antibacterial activity against Bacillus subtilis at 600 ug/ml after overnight incubation; settings: read-out: IZ
Escherichia coli [19] = assay: Antibacterial activity against Escherichia coli at 600 ug/ml after overnight incubation; settings: read-out: IZ
Priestia megaterium [20] = assay: Antibacterial activity against Bacillus megaterium at 600 ug/ml after overnight incubation
Enterococcus faecalis [21] = assay: Antibacterial activity against Enterococcus faecalis at 600 ug/ml after overnight incubation; settings: read-out: IZ
Fusarium oxysporum [22] = assay: Antifungal activity against Fusarium oxysporum at 900 ug/ml after 48 hr; settings: read-out: IZ
Colletotrichum falcatum [23] = assay: Antifungal activity against Glomerella tucumanensis at 900 ug/ml after 48 hr; settings: read-out: IZ
Klebsiella pneumoniae [24] = assay: Antibacterial activity against Klebsiella pneumoniae at 600 ug/ml after overnight incubation; settings: read-out: IZ
Candida albicans [25] = assay: Antifungal activity against Candida albicans at 900 ug/ml after 48 hr; settings: read-out: IZ
Escherichia coli [26] = assay: Antibacterial activity against Escherichia coli at 900 ug/ml after overnight incubation; settings: read-out: IZ
Exserohilum rostratum [27] = assay: Antifungal activity against Setosphaeria rostrata at 600 ug/ml after 48 hr; settings: read-out: IZ
Priestia megaterium [28] = assay: Antibacterial activity against Bacillus megaterium at 900 ug/ml after overnight incubation
Staphylococcus aureus [29] = assay: Antibacterial activity against Staphylococcus aureus at 600 ug/ml after overnight incubation
Exserohilum rostratum [30] = assay: Antifungal activity against Setosphaeria rostrata at 300 ug/ml after 48 hr; settings: read-out: IZ
Streptococcus pyogenes [31] = assay: Antibacterial activity against Streptococcus pyogenes at 600 ug/ml after overnight incubation; settings: read-out: IZ
Candida albicans [32] = assay: Antifungal activity against Candida albicans at 600 ug/ml after 48 hr; settings: read-out: IZ
Proteus vulgaris [33] = assay: Antibacterial activity against Proteus vulgaris at 600 ug/ml after overnight incubation; settings: read-out: IZ
Proteus vulgaris [34] = assay: Antibacterial activity against Proteus vulgaris at 900 ug/ml after overnight incubation; settings: read-out: IZ
Bacillus pumilus [35] = assay: Antibacterial activity against Bacillus pumilus at 600 ug/ml after overnight incubation; settings: read-out: IZ
Fusarium oxysporum [36] = assay: Antifungal activity against Fusarium oxysporum at 300 ug/ml after 48 hr; settings: read-out: IZ

COc1cccc(-c2nnc(CN3CCC(n4nc5ccccc5n4)CC3)o2)c1
zone of inhibition at 1200 µg/mL (Colletotrichum falcatum [1]): 25.9 mm
zone of inhibition at 900 µg/mL (Klebsiella pneumoniae [2]): 7.25 mm
zone of inhibition at 900 µg/mL (Bacillus subtilis [3]): 9.56 mm
zone of inhibition at 600 µg/mL (Fusarium oxysporum [4]): 5.86 mm
inhibition zone (IZ) (Staphylococcus aureus [5]): inactive
zone of inhibition at 1200 µg/mL (Fusarium oxysporum [6]): 21.3 mm
zone of inhibition at 300 µg/mL (Colletotrichum falcatum [7]): 4.56 mm
zone of inhibition at 600 µg/mL (Klebsiella aerogenes [8]): 3.65 mm
zone of inhibition at 900 µg/mL (Exserohilum rostratum [9]): 10.2 mm
zone of inhibition at 900 µg/mL (Klebsiella aerogenes [10]): 7.56 mm
zone of inhibition at 600 µg/mL (Colletotrichum falcatum [11]): 7.76 mm
zone of inhibition at 900 µg/mL (Enterococcus faecalis [12]): 9.26 mm
zone of inhibition at 900 µg/mL (Streptococcus pyogenes [13]): 11.3 mm
zone of inhibition at 1200 µg/mL (Candida albicans [14]): 17.2 mm
zone of inhibition at 1200 µg/mL (Exserohilum rostratum [15]): 19.2 mm
zone of inhibition at 900 µg/mL (Bacillus pumilus [16]): 11.2 mm
zone of inhibition at 300 µg/mL (Candida albicans [17]): 2.52 mm
zone of inhibition at 600 µg/mL (Bacillus subtilis [18]): 4.25 mm
zone of inhibition at 600 µg/mL (Escherichia coli [19]): 3.35 mm
inhibition zone (IZ) (Priestia megaterium [20]): inactive
zone of inhibition at 600 µg/mL (Enterococcus faecalis [21]): 4.25 mm
zone of inhibition at 900 µg/mL (Fusarium oxysporum [22]): 10.1 mm
zone of inhibition at 900 µg/mL (Colletotrichum falcatum [23]): 13.9 mm
zone of inhibition at 600 µg/mL (Klebsiella pneumoniae [24]): 3.25 mm
zone of inhibition at 900 µg/mL (Candida albicans [25]): 9.86 mm
zone of inhibition at 900 µg/mL (Escherichia coli [26]): 6.26 mm
zone of inhibition at 600 µg/mL (Exserohilum rostratum [27]): 5.85 mm
inhibition zone (IZ) (Priestia megaterium [28]): inactive
inhibition zone (IZ) (Staphylococcus aureus [29]): inactive
zone of inhibition at 300 µg/mL (Exserohilum rostratum [30]): 3.32 mm
zone of inhibition at 600 µg/mL (Streptococcus pyogenes [31]): 4.47 mm
zone of inhibition at 600 µg/mL (Candida albicans [32]): 5.01 mm
zone of inhibition at 600 µg/mL (Proteus vulgaris [33]): 4.36 mm
zone of inhibition at 900 µg/mL (Proteus vulgaris [34]): 8.45 mm
zone of inhibition at 600 µg/mL (Bacillus pumilus [35]): 5.56 mm
zone of inhibition at 300 µg/mL (Fusarium oxysporum [36]): 3.35 mm

Cc1ccc(-c2nnc(CN3CCC(n4nc5ccccc5n4)CC3)o2)cc1Br
zone of inhibition at 1200 µg/mL (Colletotrichum falcatum [1]): 25.6 mm
zone of inhibition at 900 µg/mL (Klebsiella pneumoniae [2]): 12.8 mm
zone of inhibition at 900 µg/mL (Bacillus subtilis [3]): 9.05 mm
zone of inhibition at 600 µg/mL (Fusarium oxysporum [4]): 7.36 mm
zone of inhibition at 900 µg/mL (Staphylococcus aureus [5]; read-out: IZ): 11.2 mm
zone of inhibition at 1200 µg/mL (Fusarium oxysporum [6]): 26.9 mm
zone of inhibition at 300 µg/mL (Colletotrichum falcatum [7]): 4.22 mm
zone of inhibition at 600 µg/mL (Klebsiella aerogenes [8]): 3.55 mm
zone of inhibition at 900 µg/mL (Exserohilum rostratum [9]): 9.86 mm
zone of inhibition at 900 µg/mL (Klebsiella aerogenes [10]): 7.05 mm
zone of inhibition at 600 µg/mL (Colletotrichum falcatum [11]): 7.8 mm
zone of inhibition at 900 µg/mL (Enterococcus faecalis [12]): 5.56 mm
zone of inhibition at 900 µg/mL (Streptococcus pyogenes [13]): 5.56 mm
zone of inhibition at 1200 µg/mL (Candida albicans [14]): 17.8 mm
zone of inhibition at 1200 µg/mL (Exserohilum rostratum [15]): 17.2 mm
zone of inhibition at 900 µg/mL (Bacillus pumilus [16]): 6.56 mm
zone of inhibition at 300 µg/mL (Candida albicans [17]): 3.23 mm
zone of inhibition at 600 µg/mL (Bacillus subtilis [18]): 4.25 mm
zone of inhibition at 600 µg/mL (Escherichia coli [19]): 6.85 mm
zone of inhibition at 600 µg/mL (Priestia megaterium [20]; read-out: IZ): 5.85 mm
zone of inhibition at 600 µg/mL (Enterococcus faecalis [21]): 3.35 mm
zone of inhibition at 900 µg/mL (Fusarium oxysporum [22]): 13.2 mm
zone of inhibition at 900 µg/mL (Colletotrichum falcatum [23]): 14 mm
zone of inhibition at 600 µg/mL (Klebsiella pneumoniae [24]): 6.02 mm
zone of inhibition at 900 µg/mL (Candida albicans [25]): 9.26 mm
zone of inhibition at 900 µg/mL (Escherichia coli [26]): 11.1 mm
zone of inhibition at 600 µg/mL (Exserohilum rostratum [27]): 5.21 mm
zone of inhibition at 900 µg/mL (Priestia megaterium [28]; read-out: IZ): 9.85 mm
zone of inhibition at 600 µg/mL (Staphylococcus aureus [29]; read-out: IZ): 5.85 mm
zone of inhibition at 300 µg/mL (Exserohilum rostratum [30]): 3.25 mm
zone of inhibition at 600 µg/mL (Streptococcus pyogenes [31]): 2.25 mm
zone of inhibition at 600 µg/mL (Candida albicans [32]): 5.51 mm
zone of inhibition at 600 µg/mL (Proteus vulgaris [33]): 4.85 mm
zone of inhibition at 900 µg/mL (Proteus vulgaris [34]): 10.1 mm
zone of inhibition at 600 µg/mL (Bacillus pumilus [35]): 3.32 mm
zone of inhibition at 300 µg/mL (Fusarium oxysporum [36]): 4.21 mm

CCC(C)n1ncn(-c2ccc(N3CCN(c4ccc(OCC5COC(Cn6cncn6)(c6ccc(Cl)cc6Cl)O5)cc4)CC3)cc2)c1=O (stereo not drawn) [ITRACONAZOLE]
zone of inhibition at 1200 µg/mL (Colletotrichum falcatum [1]): 33.4 mm
zone of inhibition at 600 µg/mL (Fusarium oxysporum [4]): 10.8 mm
zone of inhibition at 1200 µg/mL (Fusarium oxysporum [6]): 39.6 mm
zone of inhibition at 300 µg/mL (Colletotrichum falcatum [7]): 4.67 mm
zone of inhibition at 900 µg/mL (Exserohilum rostratum [9]): 14.8 mm
zone of inhibition at 600 µg/mL (Colletotrichum falcatum [11]): 9.34 mm
zone of inhibition at 1200 µg/mL (Candida albicans [14]): 25.1 mm
zone of inhibition at 1200 µg/mL (Exserohilum rostratum [15]): 29.6 mm
zone of inhibition at 300 µg/mL (Candida albicans [17]): 2.62 mm
zone of inhibition at 900 µg/mL (Fusarium oxysporum [22]): 20 mm
zone of inhibition at 900 µg/mL (Colletotrichum falcatum [23]): 18.3 mm
zone of inhibition at 900 µg/mL (Candida albicans [25]): 12 mm
zone of inhibition at 600 µg/mL (Exserohilum rostratum [27]): 7.56 mm
zone of inhibition at 300 µg/mL (Exserohilum rostratum [30]): 3.58 mm
zone of inhibition at 600 µg/mL (Candida albicans [32]): 5.35 mm
zone of inhibition at 300 µg/mL (Fusarium oxysporum [36]): 4.82 mm
